Results from article PMC8903829 (eLife, 2022).
“And” between values parts separate entries of the source, which are not always exact repeats. Identical values can stand only once. Like-named read-outs stand apart in the source and are kept apart here.

Experiments:
hNaV1.6 = target: T1, hNaV1.6 (Homo sapiens, UniProt Q9UQD0); assay: Automated patch-clamp, rested state 'Peak' current (Vh -120 mV); type: cell-based
T1 construct: expression vector containing the full-length cDNA coding for specific human and mouse sodium channel α-subunit; expressed in transfected cells
From the text: Holding the membrane potential at –120 mV induces most channels to reside in the resting state. […] Holding the membrane potential at –45 mV encourages channels to transition into inactivated states. Brief hyperpolarizations allow rapid recovery from inactivation for channels that are not bound to drug followed by a short 20ms test pulse to –20 mV to measure currents from unbound channels (see Materials and methods for details).
Inorm(CPD)=(ICPD−Icontrol)/(ITTX−Icontrol).

Scn8a^N1768D/+ mice = assay: Modified 6 Hz psychomotor seizure assay; type: in vivo, mouse; details: for SCN8a mouse 6Hz chronic, Fraction of animals seizing: day 7, 2 hr after 13th dose; for SCN8a mouse 6Hz acute, Fraction of animals seizing: 2 hr
Protocol: (§1) Phenytoin was formulated in physiologic saline and was administered intraperitoneally (i.p.) using a 25-gauge needle at a dose volume of 10 mL/kg. All compounds were administered 2 hr prior to electrical seizure induction for all seizure models employed in this study.
Scn8a^N1768D/+heterozygous mice were tested at 5 weeks of age (p35). The modified 6 Hz seizure assay in Scn8a^N1768D/+heterozygous mice was adapted from the traditional 6 Hz assay psychomotor seizure assay to provide a measure of in vivo on target (NaV1.6 mediated) efficacy ([Barton et al., 2001]). The modified assay used a low frequency (6 Hz) but long-duration stimulation (3 s) to induce seizures. […] An electroshock (6 Hz, 12 mA) was delivered for 3 s (at 0.3-ms pulse interval) by corneal electrodes (Electro Convulsive Therapy Unit 57,800 from Ugo Basile). Immediately prior to the electroshock, the animals’ eyes were anesthetized with a drop of Alcaine (0.5% proparacaine hydrochloride).
An animal was considered protected in the assay upon prevention of GTC with hindlimb extension and was then scored ‘0’. An animal displaying GTC with hindlimb extension was considered not protected and is then scored ‘1’. The experimenter scoring the seizure behavior was blinded to the treatment.

[1] = test system: wild-type Sprague Dawley rats; assay: DC-Maximal electroshock seizure assay (DC-MES); type: in vivo, rat; details: for WT rat DC-MES, fraction of animals seizing: sheet Figure 5G, 5H, 5I (rats)
Protocol: as §1
The maximal electroshock seizure (MES) assay has been extensively used in the search for anticonvulsant substances ([Löscher et al., 1991]; [Piredda et al., 1985]; [White et al., 1995]). The MES assay is sensitive to nonselective NaV inhibitors. It is considered a model for generalized tonic-clonic (GTC) seizures and provides an assessment of seizure spread. Briefly, an electroshock of direct current (DC) was delivered by corneal electrodes (Electro Convulsive Therapy Unit 57,800 from Ugo Basile). The parameters of stimulation were different between mice and rats. In CF1 mice aged 9–12 weeks, a direct current of 50 mA (60 Hz) was delivered for 0.2 s (pulse width of 0.5ms), whereas in Sprague Dawley (SD) rats aged 5–6 weeks, a direct current of 150 mA (60 Hz) was delivered for 0.3 s (pulse width of 0.5ms). Immediately prior to the electroshock, the animals’ eyes were anesthetized with a drop of Alcaine (0.5% proparacaine hydrochloride).
An animal was considered protected in the assay in the absence of a GTC with hindlimb extension and is then scored ‘0’. An animal displaying GTC with hindlimb extension was considered not protected and is then scored ‘1’. The experimenter scoring the seizure behavior was blinded to the treatment.

[2] = Mus musculus, Scn8a^N1768D/+ 6 Hz model, 2 hr post dose (oral; phenytoin i.p.), read-out: brain EC50
[3] = WT rat DC-MES (oral; phenytoin i.p.), read-out: plasma EC50
[4] = WT rat DC-MES, 2 hr post dose (oral; phenytoin i.p.), read-out: brain EC50

T1 sequence (Q9UQD0 whole entry): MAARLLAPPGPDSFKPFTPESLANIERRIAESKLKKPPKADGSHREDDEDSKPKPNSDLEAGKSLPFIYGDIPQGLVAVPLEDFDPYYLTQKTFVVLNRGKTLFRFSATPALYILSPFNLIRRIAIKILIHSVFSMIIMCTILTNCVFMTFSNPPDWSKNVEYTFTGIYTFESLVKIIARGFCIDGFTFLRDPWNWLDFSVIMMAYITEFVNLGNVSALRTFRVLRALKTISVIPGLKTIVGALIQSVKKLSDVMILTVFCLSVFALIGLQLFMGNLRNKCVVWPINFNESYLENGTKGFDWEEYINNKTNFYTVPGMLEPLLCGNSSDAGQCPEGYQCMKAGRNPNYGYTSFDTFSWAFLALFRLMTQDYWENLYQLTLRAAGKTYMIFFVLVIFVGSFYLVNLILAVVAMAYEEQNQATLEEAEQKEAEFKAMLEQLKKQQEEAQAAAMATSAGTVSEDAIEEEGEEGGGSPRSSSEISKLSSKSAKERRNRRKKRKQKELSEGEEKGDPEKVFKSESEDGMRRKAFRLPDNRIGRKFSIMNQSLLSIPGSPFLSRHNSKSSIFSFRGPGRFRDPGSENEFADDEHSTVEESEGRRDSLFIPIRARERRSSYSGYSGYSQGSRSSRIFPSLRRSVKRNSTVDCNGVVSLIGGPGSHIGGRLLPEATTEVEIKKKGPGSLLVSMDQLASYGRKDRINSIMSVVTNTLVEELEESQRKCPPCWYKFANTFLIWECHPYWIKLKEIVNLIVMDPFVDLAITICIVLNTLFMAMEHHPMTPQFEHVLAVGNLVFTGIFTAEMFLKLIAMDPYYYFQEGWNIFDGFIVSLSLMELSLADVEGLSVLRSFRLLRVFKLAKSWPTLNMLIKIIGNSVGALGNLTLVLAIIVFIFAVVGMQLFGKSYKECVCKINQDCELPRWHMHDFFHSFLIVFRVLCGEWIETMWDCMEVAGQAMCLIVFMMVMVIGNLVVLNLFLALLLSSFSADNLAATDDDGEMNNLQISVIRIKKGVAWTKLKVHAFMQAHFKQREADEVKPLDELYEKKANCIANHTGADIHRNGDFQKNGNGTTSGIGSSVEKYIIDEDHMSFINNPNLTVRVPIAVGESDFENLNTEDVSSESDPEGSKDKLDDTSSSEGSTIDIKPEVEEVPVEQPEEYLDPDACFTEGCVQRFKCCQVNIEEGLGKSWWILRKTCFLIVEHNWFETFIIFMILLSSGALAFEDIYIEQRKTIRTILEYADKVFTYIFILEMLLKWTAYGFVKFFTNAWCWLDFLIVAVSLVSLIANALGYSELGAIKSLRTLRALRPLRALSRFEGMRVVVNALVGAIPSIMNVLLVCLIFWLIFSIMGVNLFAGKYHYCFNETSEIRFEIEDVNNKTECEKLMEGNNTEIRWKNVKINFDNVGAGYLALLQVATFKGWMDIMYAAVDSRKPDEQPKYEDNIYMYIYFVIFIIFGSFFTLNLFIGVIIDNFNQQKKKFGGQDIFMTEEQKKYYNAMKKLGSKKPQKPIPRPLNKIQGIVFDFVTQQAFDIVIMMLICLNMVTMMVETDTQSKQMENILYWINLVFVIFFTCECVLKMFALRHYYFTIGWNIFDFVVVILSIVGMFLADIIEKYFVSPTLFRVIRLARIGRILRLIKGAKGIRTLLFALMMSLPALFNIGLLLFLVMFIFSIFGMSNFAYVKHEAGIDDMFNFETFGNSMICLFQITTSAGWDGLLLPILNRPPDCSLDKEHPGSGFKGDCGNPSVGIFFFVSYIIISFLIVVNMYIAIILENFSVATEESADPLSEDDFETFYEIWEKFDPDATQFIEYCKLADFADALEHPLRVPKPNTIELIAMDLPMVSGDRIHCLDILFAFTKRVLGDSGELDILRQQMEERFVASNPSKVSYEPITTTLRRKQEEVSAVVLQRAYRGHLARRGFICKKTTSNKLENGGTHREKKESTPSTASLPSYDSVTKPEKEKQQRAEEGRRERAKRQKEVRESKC
T1 sequence (Q92913 1-192 isoform Q92913-2 partner): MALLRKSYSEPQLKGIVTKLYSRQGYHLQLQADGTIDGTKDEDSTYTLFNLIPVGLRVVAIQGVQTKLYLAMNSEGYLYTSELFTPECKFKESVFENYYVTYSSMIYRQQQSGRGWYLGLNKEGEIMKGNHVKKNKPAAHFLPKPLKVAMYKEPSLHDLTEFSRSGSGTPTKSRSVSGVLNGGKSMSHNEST

Cc1cc(S(=O)(=O)Nc2cscn2)c(F)cc1N(C)[C@H]1CCN(Cc2ccccc2)C1 [NBI-921352]
IC50 (hNaV1.6): 36 µM
hNav1.6 current in (352)/(Vehicle), Rested (-120mV), mean (hNaV1.6; -4 Log M): 0.8706
hNav1.6 current in (352)/(Vehicle), Rested (-120mV), mean (hNaV1.6; -4.47713 Log M): 0.4353
hNav1.6 current in (352)/(Vehicle), Rested (-120mV), mean (hNaV1.6; -4.95425 Log M): 0.1765
hNav1.6 current in (352)/(Vehicle), Rested (-120mV), mean (hNaV1.6; -5.43133 Log M): 0.09412
hNav1.6 current in (352)/(Vehicle), Rested (-120mV), mean (hNaV1.6; -5.90833 Log M): -0.01176
hNav1.6 current in (352)/(Vehicle), Rested (-120mV), mean (hNaV1.6; -6.3851 Log M): -0.02353
hNav1.6 current in (352)/(Vehicle), Rested (-120mV), mean (hNaV1.6; -6.86328 Log M): 0.1176
hNav1.6 current in (352)/(Vehicle), Rested (-120mV), mean (hNaV1.6; -7.33724 Log M): 0.05882
SCN8a mouse 6Hz chronic, Fraction of animals seizing (Scn8a^N1768D/+ mice; 2 mg/kg PO every 12 hr): 0.5
SCN8a mouse 6Hz acute, Fraction of animals seizing (Scn8a^N1768D/+ mice; 2 mg/kg PO single dose): 0.8
SCN8a mouse 6Hz acute, Fraction of animals seizing (Scn8a^N1768D/+ mice; 3 mg/kg PO single dose): 0.8
SCN8a mouse 6Hz chronic, Fraction of animals seizing (Scn8a^N1768D/+ mice; 6 mg/kg PO every 12 hr): 0.34 and 0.429 and 0.5
SCN8a mouse 6Hz acute, Fraction of animals seizing (Scn8a^N1768D/+ mice; 6 mg/kg PO single dose): 0.5 and 0.667 and 0.834 and 0.715
SCN8a mouse 6Hz acute, Fraction of animals seizing (Scn8a^N1768D/+ mice; 10 mg/kg PO single dose): 0.57 and 0.4
SCN8a mouse 6Hz acute, Fraction of animals seizing (Scn8a^N1768D/+ mice; 30 mg/kg PO single dose): 0.43 and 0.5 and 0.333 and 0.4
SCN8a mouse 6Hz acute, Fraction of animals seizing (Scn8a^N1768D/+ mice; 200 mg/kg PO single dose): 0
SCN8a mouse 6Hz acute, Fraction of animals seizing (Scn8a^N1768D/+ mice; 300 mg/kg PO single dose): 0
EC50 (Scn8a^N1768D/+ mice; [2]): 0.064 µM
EC50 (Scn8a^N1768D/+ mice; Mus musculus, Scn8a^N1768D/+ 6 Hz model, 2 hr post dose, read-out: plasma EC50): 0.037 µM
ED50 (Scn8a^N1768D/+ mice; Mus musculus, oral, 2 hr prior to stimulation, read-out: ED50, prevention of GTC with hindlimb extension): 15 mg/kg
EC50 [1, 3]: 0.15 µM
EC50 [1, 4]: 0.037 µM
ED50 ([1]; WT rat DC-MES, oral, 2 hr, read-out: ED50, prevention of GTC with hindlimb extension): 3.7 mg/kg
WT rat DC-MES, fraction of animals seizing ([1]; 1 mg/kg PO every 12 hr, day 7, 2 hr after 13th dose): 0.4286
WT rat DC-MES, fraction of animals seizing ([1]; 1 mg/kg PO single dose, 2 hr, 1 mg/kg): 0.75 and 1
WT rat DC-MES, fraction of animals seizing ([1]; 3 mg/kg PO every 12 hr, day 7, 2 hr after 13th dose): 0.25
WT rat DC-MES, fraction of animals seizing ([1]; 3 mg/kg PO single dose, 2 hr, 3 mg/kg): 0.6 and 0.5714 and 0.4
WT rat DC-MES, fraction of animals seizing ([1]; 10 mg/kg PO single dose, 2 hr): 0.1429
WT rat DC-MES, fraction of animals seizing ([1]; 30 mg/kg PO single dose, 2 hr): 0

NC(=O)N1c2ccccc2C=Cc2ccccc21 [carbamazepine, Carbamazepine, reference compound]
EC50 (Scn8a^N1768D/+ mice; [2]): 9.4 µM
SCN8A mouse 6HZ Fraction of animals seizing (Scn8a^N1768D/+ mice; Study15064, 3 mg/kg): 0.5
SCN8A mouse 6HZ Fraction of animals seizing (Scn8a^N1768D/+ mice; Study15064, 10 mg/kg): 0.75
SCN8A mouse 6HZ Fraction of animals seizing (Scn8a^N1768D/+ mice; Study16152, 3 mg/kg): 0.75
SCN8A mouse 6HZ Fraction of animals seizing (Scn8a^N1768D/+ mice; Study16152, 10 mg/kg): 0.667
SCN8A mouse 6HZ Fraction of animals seizing (Scn8a^N1768D/+ mice; Study16152, 30 mg/kg): 0
SCN8A mouse 6HZ Fraction of animals seizing (Scn8a^N1768D/+ mice; Study16162, 3 mg/kg): 0.8
SCN8A mouse 6HZ Fraction of animals seizing (Scn8a^N1768D/+ mice; Study16162, 10 mg/kg): 0.4
SCN8A mouse 6HZ Fraction of animals seizing (Scn8a^N1768D/+ mice; Study16162, 100 mg/kg): 0
Rat DC-MES Fraction of animals seizing ([1]; Study18058, 10 mg/kg): 0.857
Rat DC-MES Fraction of animals seizing ([1]; Study18058, 20 mg/kg): 0.714
Rat DC-MES Fraction of animals seizing ([1]; Study18068, 30 mg/kg): 0.571
Rat DC-MES Fraction of animals seizing ([1]; Study18068, 100 mg/kg): 0.428
Rat DC-MES Fraction of animals seizing ([1]; Study18085, 300 mg/kg): 0.285
EC50 [1, 3]: 30 µM
EC50 [1, 4]: 36 µM

COC[C@@H](NC(C)=O)C(=O)NCc1ccccc1 [lacosamide, Lacosamide, reference compound]
EC50 (Scn8a^N1768D/+ mice; Mus musculus, 2 h, read-out: brain EC50): 3.3 µM
SCN8A mouse 6HZ Fraction of animals seizing (Scn8a^N1768D/+ mice; Study18007, 3 mg/kg): 0.429
SCN8A mouse 6HZ Fraction of animals seizing (Scn8a^N1768D/+ mice; Study18007, 10 mg/kg): 0.286
SCN8A mouse 6HZ Fraction of animals seizing (Scn8a^N1768D/+ mice; Study18007, 30 mg/kg): 0.286
SCN8A mouse 6HZ Fraction of animals seizing (Scn8a^N1768D/+ mice; Study18011, 1 mg/kg): 0.858
SCN8A mouse 6HZ Fraction of animals seizing (Scn8a^N1768D/+ mice; Study18011, 30 mg/kg): 0.5
SCN8A mouse 6HZ Fraction of animals seizing (Scn8a^N1768D/+ mice; Study18011, 56 mg/kg): 0.286
SCN8A mouse 6HZ Fraction of animals seizing (Scn8a^N1768D/+ mice; Study18028, 10 mg/kg): 0.375
SCN8A mouse 6HZ Fraction of animals seizing (Scn8a^N1768D/+ mice; Study18042, 10 mg/kg): 0.5
EC50 ([1]; Rattus norvegicus, 2 h, read-out: brain EC50): 4.3 µM
EC50 ([1]; Rattus norvegicus, read-out: plasma EC50): 24.4 µM
Rat DC-MES Fraction of animals seizing ([1]; Study18060, 2 mg/kg): 1
Rat DC-MES Fraction of animals seizing ([1]; Study18060, 6 mg/kg): 0.8571
Rat DC-MES Fraction of animals seizing ([1]; Study18060, 12 mg/kg): 0.5714
Rat DC-MES Fraction of animals seizing ([1]; Study18068, 100 mg/kg): 0
